Laboratory results from patent publication US20050025830A1, “Drug delivery device comprising an active compound and method for releasing an active compound from a drug delivery device” (Technische Universiteit Eindhoven, priority 2003, published 2005).

Assays:
[1] = Ultrasound-induced release of ibuprofen from polymer disc into physiological buffer; format: physicochemical; conditions: PLAGA 50/50 disc, ibuprofen 10% (m/m)
Description: An object consisting of a pressed circular disc with a diameter of 2 cm and thickness of 2 mm was provided with a thermocouple in the middle and was then placed in a holder in a vessel containing 0.5 litre physiological buffer. […] The PLAGA was purchased from Purac Biochem, The Netherlands. The glass transition temperature of the matrix of poly(lactic acid-co-glycolic acid) used was 12.7° C. (as compared to Example 1 where a Tg of 43° C. is disclosed. This decrease of the Tg is the result of a higher loading of ibuprofen). The disc was irradiated perpendicularly to the surface with a beam of ultrasonic sound with a power of 4 W and a frequency of 10^6 Hz (1 MHz), the probe for generating the ultrasound being 28 mm away from the disc. The speed of the release of ibuprofen into the physiological buffer was determined as a function of time. Both the temperature of the buffer and the temperature in the disc were measured continuously. The irradiation with ultrasonic sound was applied in an alternating manner, periods of irradiation of 120 minutes being alternated with periods of 60 minutes without irradiation.

[2] = Concentration of ibuprofen in blood after subcutaneous implantation of disc and alternating ultrasound irradiation; format: in vivo; conditions: p(BMA-MMA) disc, ibuprofen 3% (m/m), Lewis rat
Text: A pressed circular disc of p(BMA-MMA) with ibuprofen incorporated in the matrix with a mass ratio of 3% (m/m), as described in example 1, was implanted subcutaneously in a Lewis rat. On both sides of the disc a thermocouple was implanted to continuously measure the temperature at the surface of the disc. One hour after implantation the disc was irradiated perpendicularly to the surface with a beam of ultrasonic sound with a power of 0.7 W, a frequency of 10^6 Hz (1 MHz), and a duty cycle of 70%, the probe for generating the ultrasound touching the skin of the rat. A standard physiotherapeutic hydrogel was used in between the skin and the probe. The irradiation with ultrasonic sound was applied in an alternating manner, periods of irradiation of 30 minutes being alternated with periods of 30 minutes without irradiation.
Blood samples were taken each 10 minutes during irradiation and each 20 minutes in the periods without irradiation to determine concentration of ibuprofen in the blood stream as a function of time. After 30 minutes irradiation the concentration of ibuprofen was 0.9 μg/ml, after irradiation the plasma concentration went below 0.01 μg/ml.

[3] = Release of active compound from pressed polymer disc into physiological buffer in shaking bath at 20° C. and 50° C.; format: physicochemical; conditions: p(BMA-MMA) disc with 75 mol % pBMA, ibuprofen 5% (m/m)

SMILES: CC(C)Cc1ccc(C(C)C(=O)O)cc1 (stereo not drawn) [ibuprofen]
- release of ibuprofen after stopping the irradiation [1]: fell virtually immediately to the base value
- speed of release of ibuprofen from the disc ([1]; without irradiation (base value), 8° C.): less than 1×10^−7 gram/minute
- plasma concentration of ibuprofen ([2]; after irradiation (period without irradiation)): below 0.01 μg/ml
- concentration at 30 min ([2]; blood, sc, after 30 minutes irradiation (0.7 W, 1 MHz, duty cycle 70%), read-out: concentration of ibuprofen in the blood stream): 900 ng/mL
- release rate of ibuprofen into the physiological buffer ([3]; 20° C.): 0.36 nmol/h
- release rate of ibuprofen into the physiological buffer ([3]; 50° C.): 10 nmol/h
